Molecular target: T1, hAhR (Homo sapiens, UniProt P35869)
T1 construct: Stably integrated DRE-luciferase cell lines were generated by transducing the both cell lines with Cignal XRE luciferase reporter; endogenous in cells; host or cells: HEPG2 DRE-Luc cells (only the XRE luciferase reporter was transduced)
T1 sequence (P35869 11-848): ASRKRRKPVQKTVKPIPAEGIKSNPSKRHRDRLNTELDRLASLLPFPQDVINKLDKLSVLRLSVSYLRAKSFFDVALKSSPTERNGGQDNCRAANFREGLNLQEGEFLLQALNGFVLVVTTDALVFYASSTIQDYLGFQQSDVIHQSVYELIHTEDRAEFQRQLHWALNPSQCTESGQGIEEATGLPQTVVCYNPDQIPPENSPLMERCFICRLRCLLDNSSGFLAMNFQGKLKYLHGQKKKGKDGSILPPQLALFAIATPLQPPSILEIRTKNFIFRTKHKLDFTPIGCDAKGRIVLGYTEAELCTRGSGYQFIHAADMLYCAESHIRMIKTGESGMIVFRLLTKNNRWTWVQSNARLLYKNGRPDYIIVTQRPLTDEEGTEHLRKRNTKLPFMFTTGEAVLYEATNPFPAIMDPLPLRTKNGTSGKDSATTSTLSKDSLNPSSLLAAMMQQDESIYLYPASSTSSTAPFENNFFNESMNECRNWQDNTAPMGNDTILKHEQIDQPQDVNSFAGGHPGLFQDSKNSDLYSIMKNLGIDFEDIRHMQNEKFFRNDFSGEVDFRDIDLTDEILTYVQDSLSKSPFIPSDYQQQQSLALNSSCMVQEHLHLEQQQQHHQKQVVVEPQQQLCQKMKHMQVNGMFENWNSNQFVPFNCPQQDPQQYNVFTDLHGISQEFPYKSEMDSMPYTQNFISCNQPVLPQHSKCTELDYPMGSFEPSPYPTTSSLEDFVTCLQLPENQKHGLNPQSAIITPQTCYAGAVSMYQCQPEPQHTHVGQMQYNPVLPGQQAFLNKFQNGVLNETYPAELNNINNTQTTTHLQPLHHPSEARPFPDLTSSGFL
Experiment: DRE-luciferase transcriptional reporter assay in HEPG2 DRE-Luc cells, TCDD-induced (antagonist mode)
Format: cell-based
Conditions: relative IC50, 3 nM TCDD, 24-hour incubation, firefly luciferase readout
Experimental: HEPG2 and HEPA1C1C7 cells were maintained in MEM and αMEM without nucleosides supplemented with 10% heat inactivated FBS respectively. Stably integrated DRE-luciferase cell lines were generated by transducing the both cell lines with Cignal XRE luciferase reporter (Qiagen) lentiviral particles according to the manufacturer protocol. For both cell lines stably integrated reporter cell lines were selected for the presence of 2 μg/mL puromycin. Following selection of stably integrated cell line pools, clonal cell lines were isolated by limiting dilution in 96-well plates. Transcriptional assays were performed by seeding 100 μL of cells at a density of 250,000 or 100,000 cells/mL, for HEPG2 and HEPA1C1C7 DRE-Luc cells respectively, into 96-well cell culture plates in OptiMEM supplemented with 0.5% heat inactivated FBS and allowed to attach overnight. For modulator assays, the compounds were added in a semi-log dose response using a D300e Digital Dispenser (Tecan) followed normalization with vehicle (DMSO). Immediately following compound addition 10 μL of 2,3,7,8-Tetrachlorodibenzo-p-dioxin (TCDD) was added to the cells to a final concentration of 3 nM or 0.3 nM for the HEPG2 and HEPA1C1C7 DRE-Luc cells respectively. Following 24-hour incubation, the medium was removed and the cells were lysed in 25 μL of Reporter Lysis Buffer (Promega). Firefly luciferase activity was measured immediately following the addition of 50 μL Luciferase Assay Reagent (Promega). The percent maximal activity for each point was determined using the following equation: (RLUsample−RLUvehicle−TCDD)/(RLUvehicle+TCDD RLUvehicle−TCDD)*100. The relative IC50, defined as the compound concentration required to reduce the TCDD induced response between the top and bottom plateau of each individual dose response curve by half, for each compound was determined using Prism 7 (GraphPad Software).

Structure (SMILES)	IC50
Cc1cc(N2CCn3ncc(C)c3C2=O)c(C)cc1-c1ccc2cc(C(F)(F)F)ccc2n1 [compound 023, 5-(2,5-dimethyl-4-(6-(trifluoromethyl)quinolin-2-yl)phenyl)-3-methyl-6,7-dihydropyrazolo[1,5-a]pyrazin-4 (5H)-one]	1000 to 10000 nM
Cc1cc(N2CCOc3cnn(C)c3C2=O)c(C)cc1-c1ccc2nc(C(F)(F)F)ccc2n1 [compound 032, 7-(2,5-dimethyl-4-(6-(trifluoromethyl)-1,5-naphthyridin-2-yl)phenyl)-1-methyl-6,7-dihydro-1H-pyrazolo[3,4-f][1,4]oxazepin-8 (5H)-one]	1000 to 10000 nM
Cc1cc(-c2ncc3cc(C(F)(F)F)ccc3n2)ccc1N1CCOc2cn[nH]c2C1=O [compound 033]	< 200 nM
Cc1cc(-c2ncc3cc(C(F)(F)F)ccc3n2)ccc1N1CCOc2cn(CCO)nc2C1=O [compound 037, 2-(2-hydroxyethyl)-7-(2-methyl-4-(6-(trifluoromethyl)quinazolin-2-yl)phenyl)-6,7-dihydro-2H-pyrazolo[3,4-f][1,4]oxazepin-8 (5H)-one]	< 200 nM
Cc1cc(-c2ncc3nc(C(F)(F)F)ccc3n2)ccc1N1CCOc2cn[nH]c2C1=O [compound 038, 7-(2-methyl-4-(6-(trifluoromethyl)pyrido[3,2-d]pyrimidin-2-yl)phenyl)-6,7-dihydro-1H-pyrazolo[3,4-f][1,4]oxazepin-8 (5H)-one]	< 200 nM
Cc1cc(-c2ncc3nc(C(F)(F)F)ccc3n2)ccc1N1CCOc2nn[nH]c2C1=O [compound 040, 7-[2-methyl-4-[6-(trifluoromethyl)pyrido[3,2-d]pyrimidin-2-yl]phenyl]-1H,5H,6H,7H,8H-[1,2,3]triazolo[4,5-f][1,4]oxazepin-8-one]	1000 to 10000 nM
Cc1cc(-c2ncc3nc(C(F)(F)F)ccc3n2)ccc1N1CCOc2nn(C)nc2C1=O [compound 042, 2-methyl-7-(2-methyl-4-(6-(trifluoromethyl)pyrido[3,2-d]pyrimidin-2-yl)phenyl)-6,7-dihydro-2H-[1,2,3]triazolo[4,5-f][1,4]oxazepin-8 (5H)-one]	200 to 500 nM
Cc1cc(-c2ncc3cc(C(F)(F)F)ccc3n2)ccc1N1CCOc2nn(C)nc2C1=O [compound 043, 2-methyl-7-(2-methyl-4-(6-(trifluoromethyl)quinazolin-2-yl)phenyl)-6,7-dihydro-2H-[1,2,3]triazolo[4,5-f][1,4]oxazepin-8 (5H)-one]	1000 to 10000 nM
Cc1cc(-c2ncc3cc(C(F)(F)F)ccc3n2)ccc1N1C(=O)c2[nH]ncc2OCC1C (centres unmarked) [compound 044, 6-methyl-7-(2-methyl-4-(6-(trifluoromethyl)quinazolin-2-yl)phenyl)-6,7-dihydro-1H-pyrazolo[3,4-f][1,4]oxazepin-8 (5H)-one]	< 200 nM
Cc1cc(-c2ccc3nc(C(F)(F)F)ccc3n2)ccc1N1C(=O)c2[nH]ncc2OCC1C (centres unmarked) [compound 045, 6-methyl-7-(2-methyl-4-(6-(trifluoromethyl)-1,5-naphthyridin-2-yl)phenyl)-6,7-dihydro-1H-pyrazolo[3,4-f][1,4]oxazepin-8 (5H)-one]	< 200 nM
Cc1cc(-c2ncc3nc(C(F)(F)F)ccc3n2)ccc1N1C(=O)c2[nH]ncc2OCC1C (centres unmarked) [compound 046, 6-methyl-7-(2-methyl-4-(6-(trifluoromethyl)pyrido[3,2-d]pyrimidin-2-yl)phenyl)-6,7-dihydro-1H-pyrazolo[3,4-f][1,4]oxazepin-8 (5H)-one]	< 200 nM
Cc1cc(-c2ncc3nc(C(F)(F)F)ccc3n2)ccc1N1CCOc2cn(C)nc2C1=O [compound 047, 2-methyl-7-(2-methyl-4-(6-(trifluoromethyl)pyrido[3,2-d]pyrimidin-2-yl)phenyl)-6,7-dihydro-2H-pyrazolo[3,4-f][1,4]oxazepin-8 (5H)-one]	< 200 nM
Cc1cc(-c2ccc3nc(C(F)(F)F)ccc3n2)ccc1N1CCOc2cn(C)nc2C1=O [compound 048, 2-methyl-7-(2-methyl-4-(6-(trifluoromethyl)-1,5-naphthyridin-2-yl)phenyl)-6,7-dihydro-2H-pyrazolo[3,4-f][1,4]oxazepin-8 (5H)-one]	< 200 nM

The remaining lines, values ahead:

IC50	Structure (SMILES)
< 200 nM	Cc1cc(N2CCn3ncc(C)c3C2=O)c(F)cc1-c1ccc2cc(C(F)(F)F)ccc2n1 [compound 024, 5-(2-fluoro-5-methyl-4-(6-(trifluoromethyl)quinolin-2-yl)phenyl)-3-methyl-6,7-dihydropyrazolo[1,5-a]pyrazin-4 (5H)-one]
< 200 nM	Cc1cc(N2CCn3ncc(C)c3C2=O)c(F)cc1-c1ncc2cc(C(F)(F)F)ccc2n1 [compound 025, 5-(2-fluoro-5-methyl-4-(6-(trifluoromethyl)quinazolin-2-yl)phenyl)-3-methyl-6,7-dihydropyrazolo[1,5-a]pyrazin-4 (5H)-one]
< 200 nM	Cc1cc(N2CCn3ncc(C)c3C2=O)c(F)cc1-c1ncc2cc(C(F)(F)F)cc(C)c2n1 [compound 026, 5-(2-fluoro-5-methyl-4-(8-methyl-6-(trifluoromethyl)quinazolin-2-yl)phenyl)-3-methyl-6,7-dihydropyrazolo[1,5-a]pyrazin-4 (5H)-one]
< 200 nM	Cc1cc(-c2ccc3nc(C(F)(F)F)ccc3n2)ccc1N1CCc2cnn(C)c2C1=O [compound 027, 1-methyl-6-(2-methyl-4-(6-(trifluoromethyl)-1,5-naphthyridin-2-yl)phenyl)-1,4,5,6-tetrahydro-7H-pyrazolo[3,4-c]pyridin-7-one]
< 200 nM	Cc1cc(-c2ccc3nc(C(F)(F)F)cc(C)c3n2)ccc1N1CCc2cnn(C)c2C1=O [compound 028, 1-methyl-6-(2-methyl-4-(8-methyl-6-(trifluoromethyl)-1,5-naphthyridin-2-yl)phenyl)-1,4,5,6-tetrahydro-7H-pyrazolo[3,4-c]pyridin-7-one]
< 200 nM	Cc1cc(-c2ncc3cc(C(F)(F)F)ccc3n2)ccc1N1CCOc2cnn(C)c2C1=O [compound 029, 1-methyl-7-(2-methyl-4-(6-(trifluoromethyl)quinazolin-2-yl)phenyl)-6,7-dihydro-1H-pyrazolo[3,4-f][1,4]oxazepin-8 (5H)-one]
< 200 nM	Cc1cc(-c2ccc3nc(C(F)(F)F)ccc3n2)ccc1N1CCOc2cnn(C)c2C1=O [compound 030, 1-methyl-7-(2-methyl-4-(6-(trifluoromethyl)-1,5-naphthyridin-2-yl)phenyl)-6,7-dihydro-1H-pyrazolo[3,4-f][1,4]oxazepin-8 (5H)-one]
< 200 nM	Cc1cc(-c2ccc3nc(C(F)(F)F)cc(C)c3n2)ccc1N1CCOc2cnn(C)c2C1=O [compound 031, 1-methyl-7-(2-methyl-4-(8-methyl-6-(trifluoromethyl)-1,5-naphthyridin-2-yl)phenyl)-6,7-dihydro-1H-pyrazolo[3,4-f][1,4]oxazepin-8 (5H)-one]
< 200 nM	Cc1cc(-c2ncc3cc(C(F)(F)F)ccc3n2)ccc1N1CCOc2cn(CC#N)nc2C1=O [compound 035, 2-(7-(2-methyl-4-(6-(trifluoromethyl)quinazolin-2-yl)phenyl)-8-oxo-5,6,7,8-tetrahydro-2H-pyrazolo[3,4-f][1,4]oxazepin-2-yl)acetonitrile]
< 200 nM	Cc1cc(-c2ncc3cc(C(F)(F)F)ccc3n2)ccc1N1CCOc2cnn(CC#N)c2C1=O [compound 036, 2-(7-(2-methyl-4-(6-(trifluoromethyl)quinazolin-2-yl)phenyl)-8-oxo-5,6,7,8-tetrahydro-1H-pyrazolo[3,4-f][1,4]oxazepin-1-yl)acetonitrile]

From US12258354B2, “AhR modulators” (IDEAYA BIOSCIENCES, INC., priority 2018, dated 2025)
